From patent publication US10472401B2, “Peptides and combination of peptides for use in immunotherapy against ovarian cancer and other cancers” (immatics biotechnologies GmbH, priority 2015, dated 2019)

What was measured:
ALDH5A1 = biological target: T1, ALDH5A1 (Homo sapiens, UniProt P51649); conditions: cited from earlier work
T1 construct: host or cells: breast ductal carcinoma models
T1 sequence (P51649 48-535): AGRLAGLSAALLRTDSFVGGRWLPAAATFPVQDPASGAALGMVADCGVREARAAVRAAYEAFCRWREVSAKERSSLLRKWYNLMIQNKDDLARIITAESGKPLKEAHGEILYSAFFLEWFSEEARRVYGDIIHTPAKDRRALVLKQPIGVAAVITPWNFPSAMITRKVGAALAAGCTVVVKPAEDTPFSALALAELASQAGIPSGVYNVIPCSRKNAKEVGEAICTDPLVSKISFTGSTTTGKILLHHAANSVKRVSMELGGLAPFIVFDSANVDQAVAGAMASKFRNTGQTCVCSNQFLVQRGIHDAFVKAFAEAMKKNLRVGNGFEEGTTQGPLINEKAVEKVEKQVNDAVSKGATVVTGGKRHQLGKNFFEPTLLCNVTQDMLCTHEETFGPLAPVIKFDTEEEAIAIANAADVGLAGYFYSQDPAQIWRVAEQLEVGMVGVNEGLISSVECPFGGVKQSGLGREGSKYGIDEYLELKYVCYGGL

CD8+ T cells = experiment: In vitro immunogenicity: priming of CD8+ T cells with aAPCs loaded with peptide/MHC and anti-CD28, multimer staining; type: cell-based, human; conditions: for Wells positive [%]: HLA-A*02 restricted peptides, percentage of positive wells (among evaluable)
Text: In order to obtain information regarding the immunogenicity of the TUMAPs of the present invention, the inventors performed investigations using an in vitro T-cell priming assay based on repeated stimulations of CD8+ T cells with artificial antigen presenting cells (aAPCs) loaded with peptide/MHC complexes and anti-CD28 antibody.
In order to perform in vitro stimulations by artificial antigen presenting cells loaded with peptide-MHC complex (pMHC) and anti-CD28 antibody, the inventors first isolated CD8+ T cells from fresh HLA-A*02 leukopheresis products via positive selection using CD8 microbeads (Miltenyi Biotec, Bergisch-Gladbach, Germany) of healthy donors obtained from the University clinics Mannheim, Germany, after informed consent.
PBMCs and isolated CD8+ lymphocytes were incubated in T-cell medium (TCM) until use consisting of RPMI-Glutamax (Invitrogen, Karlsruhe, Germany) supplemented with 10% heat inactivated human AB serum (PAN-Biotech, Aidenbach, Germany), 100 U/ml Penicillin/100 μg/ml Streptomycin (Cambrex, Cologne, Germany), 1 mM sodium pyruvate (CC Pro, Oberdorla, Germany), 20 μg/ml Gentamycin (Cambrex). 2.5 ng/ml IL-7 (PromoCell, Heidelberg, Germany) and 10 U/ml IL-2 (Novartis Pharma, Nürnberg, Germany) were also added to the TCM at this step.
Generation of pMHC/anti-CD28 coated beads, T-cell stimulations and readout was performed in a highly defined in vitro system using four different pMHC molecules per stimulation condition and 8 different pMHC molecules per readout condition.
The purified co-stimulatory mouse IgG2a anti human CD28 Ab 9.3 (Jung et al., 1987) was chemically biotinylated using Sulfo-N-hydroxysuccinimidobiotin as recommended by the manufacturer (Perbio, Bonn, Germany). Beads used were 5.6 μm diameter streptavidin coated polystyrene particles (Bangs Laboratories, Illinois, USA).
pMHC used for positive and negative control stimulations were A*0201/MLA-001 (peptide […] (SEQ ID NO. 664) from modified Melan-A/MART-1) and A*0201/DDX5-001 ([…] from DDX5, SEQ ID NO. 665), respectively.
800.000 beads/200 μl were coated in 96-well plates in the presence of 4×12.5 ng different biotin-pMHC, washed and 600 ng biotin anti-CD28 were added subsequently in a volume of 200 μl. Stimulations were initiated in 96-well plates by co-incubating […] CD8+ T cells with 2×10^5 washed coated beads in 200 μl TCM supplemented with 5 ng/ml IL-12 (PromoCell) for 3 days at 37° C. Half of the medium was then exchanged by fresh TCM supplemented with 80 U/ml IL-2 and incubating was continued for 4 days at 37° C. This stimulation cycle was performed for a total of three times. For the pMHC multimer readout using 8 different pMHC molecules per condition, a two-dimensional combinatorial coding approach was used as previously described (Andersen et al., 2012) with minor modifications encompassing coupling to 5 different fluorochromes. Finally, multimeric analyses were performed by staining the cells with Live/dead near IR dye (Invitrogen, Karlsruhe, Germany), CD8-FITC antibody clone SK1 (BD, Heidelberg, Germany) and fluorescent pMHC multimers. For analysis, a BD LSRII SORP cytometer equipped with appropriate lasers and filters was used. Peptide specific cells were calculated as percentage of total CD8+ cells. Evaluation of multimeric analysis was done using the FlowJo software (Tree Star, Oregon, USA). In vitro priming of specific multimer+ CD8+ lymphocytes was detected by comparing to negative control stimulations.
Exemplary flow cytometry results after TUMAP-specific multimer staining for two peptides of the invention are shown in FIG. 3 together with corresponding negative controls.

HLA-A*02:01 = HLA-A*02:01 (Homo sapiens, UniProt P04439, D140Y/D185E/D98H/E176V/E277Q/G131W/G231S/I119V/I121R/I166T/I218V/L300P/L318F/N151K/N90K/P208A/P217A/Q86G/Q94H/R138H/R169H/T345S); experiment: MHC binding assay (UV-ligand exchange, ELISA of stabilized MHC complexes); conditions: MHC class I binding score; binding to HLA-A*02:01 ranged by peptide exchange yield (UV-ligand exchange, ELISA)
Outline: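 Binding scored as exchange yield, detected via β2m of stabilized complexes in an HRP/TMB ELISA read at 450 nm after streptavidin capture of 100-fold diluted monomers for 1 h at 37 °C. Complexes came from UV irradiation cleaving a photolabile peptide, exchanged for the candidate.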

ovarian cancer = conditions: clinical studies; cited from earlier work
IMPDH2 = biological target: T2, IMPDH2 (Homo sapiens, UniProt P12268); conditions: patients with acute myeloid leukemia and chronic myeloid leukemia in blast crisis; cited from earlier work
T2 construct: host or cells: patients with AML and CML in blast crisis
T2 sequence (P12268 2-514 limits assumed): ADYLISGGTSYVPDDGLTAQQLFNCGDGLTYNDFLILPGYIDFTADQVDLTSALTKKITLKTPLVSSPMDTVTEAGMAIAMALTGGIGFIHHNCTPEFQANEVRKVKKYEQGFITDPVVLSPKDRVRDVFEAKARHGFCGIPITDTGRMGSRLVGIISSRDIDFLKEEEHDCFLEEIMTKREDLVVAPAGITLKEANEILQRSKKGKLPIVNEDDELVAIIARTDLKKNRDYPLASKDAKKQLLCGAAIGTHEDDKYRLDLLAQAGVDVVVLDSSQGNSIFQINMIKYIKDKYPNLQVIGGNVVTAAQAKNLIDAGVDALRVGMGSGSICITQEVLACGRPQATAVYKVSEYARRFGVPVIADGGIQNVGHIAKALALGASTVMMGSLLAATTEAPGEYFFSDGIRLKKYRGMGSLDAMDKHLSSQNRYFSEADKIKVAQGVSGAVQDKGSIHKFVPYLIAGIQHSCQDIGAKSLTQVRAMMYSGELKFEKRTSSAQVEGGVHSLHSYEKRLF

human tumor cell lines = conditions: cited from earlier work
ATR = ATR (Homo sapiens, UniProt Q13535); conditions: pancreatic cancer cells in vitro, pancreatic tumor xenografts in vivo; cited from earlier work
Chain of ATR (Q13535 whole entry): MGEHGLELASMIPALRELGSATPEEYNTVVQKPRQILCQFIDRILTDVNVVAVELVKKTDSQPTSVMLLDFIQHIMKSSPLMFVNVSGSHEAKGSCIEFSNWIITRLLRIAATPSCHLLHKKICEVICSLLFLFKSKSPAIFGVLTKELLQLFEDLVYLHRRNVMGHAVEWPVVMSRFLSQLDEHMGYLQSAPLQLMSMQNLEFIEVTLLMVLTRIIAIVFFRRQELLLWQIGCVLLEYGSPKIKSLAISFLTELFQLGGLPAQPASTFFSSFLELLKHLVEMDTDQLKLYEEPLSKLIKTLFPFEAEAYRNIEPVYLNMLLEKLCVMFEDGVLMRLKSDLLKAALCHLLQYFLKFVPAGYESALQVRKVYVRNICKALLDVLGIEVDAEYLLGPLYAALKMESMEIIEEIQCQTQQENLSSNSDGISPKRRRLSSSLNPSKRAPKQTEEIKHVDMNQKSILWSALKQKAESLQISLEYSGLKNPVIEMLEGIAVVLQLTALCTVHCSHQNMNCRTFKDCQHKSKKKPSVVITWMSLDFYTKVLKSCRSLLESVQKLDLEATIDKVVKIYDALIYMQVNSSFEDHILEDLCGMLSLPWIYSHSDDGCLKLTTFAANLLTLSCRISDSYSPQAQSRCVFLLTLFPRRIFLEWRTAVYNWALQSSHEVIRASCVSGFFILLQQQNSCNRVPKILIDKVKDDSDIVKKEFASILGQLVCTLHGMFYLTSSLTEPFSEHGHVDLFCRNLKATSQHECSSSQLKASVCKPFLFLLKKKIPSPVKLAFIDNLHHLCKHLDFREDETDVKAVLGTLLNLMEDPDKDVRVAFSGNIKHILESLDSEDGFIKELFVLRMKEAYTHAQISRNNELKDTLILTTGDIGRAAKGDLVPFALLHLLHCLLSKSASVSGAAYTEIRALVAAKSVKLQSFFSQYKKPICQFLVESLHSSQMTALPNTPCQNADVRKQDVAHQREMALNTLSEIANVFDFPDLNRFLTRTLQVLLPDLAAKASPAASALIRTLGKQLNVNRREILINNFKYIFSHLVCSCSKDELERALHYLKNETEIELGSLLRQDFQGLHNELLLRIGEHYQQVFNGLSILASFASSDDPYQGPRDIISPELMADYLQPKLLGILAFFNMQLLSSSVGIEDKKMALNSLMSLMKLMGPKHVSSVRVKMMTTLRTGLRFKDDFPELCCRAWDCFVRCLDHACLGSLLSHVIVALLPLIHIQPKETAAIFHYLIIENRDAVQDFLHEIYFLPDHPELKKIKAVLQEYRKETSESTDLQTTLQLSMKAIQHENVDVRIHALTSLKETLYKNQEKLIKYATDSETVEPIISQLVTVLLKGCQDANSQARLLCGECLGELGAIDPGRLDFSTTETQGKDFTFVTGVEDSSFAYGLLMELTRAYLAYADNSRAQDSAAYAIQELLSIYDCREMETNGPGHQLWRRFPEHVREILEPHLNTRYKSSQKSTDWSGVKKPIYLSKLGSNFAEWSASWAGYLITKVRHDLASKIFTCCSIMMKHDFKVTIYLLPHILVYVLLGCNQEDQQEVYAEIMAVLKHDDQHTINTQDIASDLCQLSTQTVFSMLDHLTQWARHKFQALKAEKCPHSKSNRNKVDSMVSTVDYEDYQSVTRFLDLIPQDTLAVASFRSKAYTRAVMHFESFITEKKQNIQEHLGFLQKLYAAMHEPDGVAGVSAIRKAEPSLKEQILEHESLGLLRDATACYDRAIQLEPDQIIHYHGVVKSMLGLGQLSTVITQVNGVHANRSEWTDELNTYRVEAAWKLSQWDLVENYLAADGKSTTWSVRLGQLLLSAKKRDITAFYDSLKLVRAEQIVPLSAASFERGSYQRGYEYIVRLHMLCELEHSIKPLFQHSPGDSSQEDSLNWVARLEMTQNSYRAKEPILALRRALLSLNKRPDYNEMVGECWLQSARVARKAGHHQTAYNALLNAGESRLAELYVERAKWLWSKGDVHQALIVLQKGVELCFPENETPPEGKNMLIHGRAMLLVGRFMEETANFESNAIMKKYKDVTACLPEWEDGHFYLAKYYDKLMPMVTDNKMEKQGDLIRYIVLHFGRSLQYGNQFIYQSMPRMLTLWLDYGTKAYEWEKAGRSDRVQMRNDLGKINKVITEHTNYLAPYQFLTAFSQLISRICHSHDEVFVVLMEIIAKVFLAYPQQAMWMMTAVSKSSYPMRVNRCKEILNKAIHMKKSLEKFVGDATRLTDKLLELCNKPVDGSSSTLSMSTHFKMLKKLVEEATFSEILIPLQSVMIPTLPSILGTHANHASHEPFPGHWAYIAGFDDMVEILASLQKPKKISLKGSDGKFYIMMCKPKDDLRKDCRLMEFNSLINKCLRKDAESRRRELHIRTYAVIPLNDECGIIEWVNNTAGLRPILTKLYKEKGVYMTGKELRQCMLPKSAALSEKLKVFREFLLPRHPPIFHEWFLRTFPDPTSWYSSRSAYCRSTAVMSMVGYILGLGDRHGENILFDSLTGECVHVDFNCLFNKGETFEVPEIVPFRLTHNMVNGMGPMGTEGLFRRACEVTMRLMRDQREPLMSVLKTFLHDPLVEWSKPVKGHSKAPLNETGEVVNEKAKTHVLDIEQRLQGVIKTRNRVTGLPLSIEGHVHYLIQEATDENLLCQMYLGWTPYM
Chain of ATR (Q8WXE1 whole entry partner): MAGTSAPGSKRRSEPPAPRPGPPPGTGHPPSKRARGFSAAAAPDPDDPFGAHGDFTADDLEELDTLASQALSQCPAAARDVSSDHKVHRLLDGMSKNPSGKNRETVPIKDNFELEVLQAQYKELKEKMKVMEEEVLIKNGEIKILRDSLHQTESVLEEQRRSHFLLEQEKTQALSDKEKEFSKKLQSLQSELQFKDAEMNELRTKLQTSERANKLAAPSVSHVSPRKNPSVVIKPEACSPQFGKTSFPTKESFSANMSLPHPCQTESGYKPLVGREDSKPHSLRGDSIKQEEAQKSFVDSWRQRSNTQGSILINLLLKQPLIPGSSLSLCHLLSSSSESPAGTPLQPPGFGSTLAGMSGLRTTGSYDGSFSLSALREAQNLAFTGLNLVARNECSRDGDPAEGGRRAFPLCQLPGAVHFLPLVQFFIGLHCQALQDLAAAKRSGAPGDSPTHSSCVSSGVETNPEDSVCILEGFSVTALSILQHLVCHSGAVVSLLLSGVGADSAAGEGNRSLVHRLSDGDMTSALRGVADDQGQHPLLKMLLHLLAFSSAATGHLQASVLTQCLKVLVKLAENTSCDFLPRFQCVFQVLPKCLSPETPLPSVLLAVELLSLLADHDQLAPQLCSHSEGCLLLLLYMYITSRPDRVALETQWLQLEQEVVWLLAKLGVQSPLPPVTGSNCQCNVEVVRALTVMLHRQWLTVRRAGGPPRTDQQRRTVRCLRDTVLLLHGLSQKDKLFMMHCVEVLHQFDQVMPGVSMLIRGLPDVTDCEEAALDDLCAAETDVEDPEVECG

Molecule | Wells positive [%] (CD8+ T cells) | Peptide exchange (HLA-A*02:01) | other results
CCCC(CCC)C(=O)O [valproic acid] |  |  | net proliferation of breast ductal carcinoma models (ALDH5A1): inhibit net proliferation
143 (LLLDITPEI; listed as Homo sapiens) [compound 143] | ″+″ (<20% = +) | ″++++″ (≥75% = ++++) | 
48 (ALAELYEDEV; listed as Homo sapiens) [compound 48] | ″+″ (<20% = +) | ″+++″ (≥50% = +++) | 
79 (SLFIGEKAVLL; listed as Homo sapiens) [compound 79] | ″+″ (<20% = +) | ″+++″ (≥50% = +++) | 
283 (ALYIGDGYVIHLA; listed as Homo sapiens) [compound 283] |  | ″+++″ (≥50% = +++) | wells (CD8+ T cells; HLA class I peptides, positive wells): + (<20% = +)
MORAb-003: anti-folate receptor alpha antibody |  |  | clinical results in ovarian cancer patients (ovarian cancer): only conferred limited clinical benefit to ovarian cancer patients
ipilimumab |  |  | clinical results in ovarian cancer patients (ovarian cancer): significant anti-tumor effects in ovarian cancer patients
11 (KIFEMLEGV; listed as Homo sapiens) [compound 11] | ″+″ (<20% = +) | ″+++″ (≥50% = +++) | 
oregovomab |  |  | clinical results in ovarian cancer patients (ovarian cancer): promising results in phase II and III studies
catumaxomab |  |  | clinical results in ovarian cancer patients (ovarian cancer): promising results in phase II and III studies
3 (SLASKLTTL; listed as Homo sapiens) [compound 3] | ″+″ (<20% = +) | ″++++″ (≥75% = ++++) | 
247 (VLLPNDLLEKV; listed as Homo sapiens) [compound 247] | ″+″ (<20% = +) | ″+++″ (≥50% = +++) | 
199 (ALQDVPLSSV; listed as Homo sapiens) [compound 199] | ″+″ (<20% = +) | ″+++″ (≥50% = +++) | 
60 (SLTIDGIYYV; listed as Homo sapiens) [compound 60] | ″++++″ (> = 70% = ++++) | ″++++″ (≥75% = ++++) | 
443 (GLWEIENNPTV; listed as Homo sapiens) [compound 443] | ″+″ (<20% = +) | ″+++″ (≥50% = +++) | 
bevacizumab |  |  | clinical results in ovarian cancer patients (ovarian cancer): appears to be advantageous
NC(=O)c1csc([C@@H]2O[C@H](CO)[C@@H](O)[C@H]2O)n1 [tiazofurin] |  |  | clinical response (IMPDH2): good clinical response
319 (SLEPQIQPV; listed as Homo sapiens) [compound 319] | ″+″ (<20% = +) | ″++″ (≥20% = ++) | 

Molecule | Wells positive [%] (CD8+ T cells) | Peptide exchange (HLA-A*02:01) | other results
113 (GLLPTPLFGV; listed as Homo sapiens) [compound 113] | ″+″ (<20% = +) | ″+++″ (≥50% = +++) | 
CN1CC[C@H](c2c(O)cc(O)c3c(=O)cc(-c4ccccc4Cl)oc23)[C@H](O)C1 [Flavopiridol] |  |  | human tumor cell proliferation (human tumor cell lines): inhibition of human tumor cell proliferation
NC(=O)c1cccc([C@@H]2O[C@H](CO)[C@@H](O)[C@H]2O)c1 [benzamide riboside] |  |  | clinical response (IMPDH2): good clinical response
36 (YVLEDLEVTV; listed as Homo sapiens) [compound 36] | ″+″ (<20% = +) | ″++″ (≥20% = ++) | 
150 (RLWEEGEELEL; listed as Homo sapiens) [compound 150] | ″+″ (<20% = +) | ″+++″ (≥50% = +++) | 
499 (KIFDIDEAEEGV; listed as Homo sapiens) [compound 499] | ″+″ (<20% = +) | ″++″ (≥20% = ++) | 
166 (YLNHLEPPV; listed as Homo sapiens) [compound 166] | ″++++″ (> = 70% = ++++) | ″+++″ (≥50% = +++) | 
511 (FLDPYCSASV; listed as Homo sapiens) [compound 511] | ″+″ (<20% = +) | ″++″ (≥20% = ++) | 
489 (KMWEELPEVV; listed as Homo sapiens) [compound 489] | ″+″ (<20% = +) | ″+++″ (≥50% = +++) | 
8 (FTLGNVVGMYL; listed as Homo sapiens) [compound 8] | ″+″ (<20% = +) | ″++++″ (≥75% = ++++) | 
CNCc1ccc(-c2cc(-c3nc(-c4ccc(S(=O)(=O)C(C)C)cc4)cnc3N)on2)cc1 [VE-822] |  |  | radiosensitization and chemosensitization (ATR): radiosensitize and chemosensitize pancreatic cancer cells in vitro and pancreatic tumor xenografts in vivo
141 (YLDFSNNRL; listed as Homo sapiens) [compound 141] | ″+″ (<20% = +) | ″++″ (≥20% = ++) | 
56 (KLYEGIPVLL; listed as Homo sapiens) [compound 56] | ″+″ (<20% = +) | ″++++″ (≥75% = ++++) | 
118 (KLIDNNINV; listed as Homo sapiens) [compound 118] | ″+″ (<20% = +) | ″+++″ (≥50% = +++) | 
460 (AMLEKNYKL; listed as Homo sapiens) [compound 460] | ″+″ (<20% = +) | ″++++″ (≥75% = ++++) | 
2 (SLLEADPFL; listed as Homo sapiens) [compound 2] | ″+″ (<20% = +) | ″+++″ (≥50% = +++) | 
384 (ILFANPNIFV; listed as Homo sapiens) [compound 384] | ″+″ (<20% = +) | ″+++″ (≥50% = +++) | 
603 (FLIEPEHVNTV; listed as Homo sapiens) [compound 603] | ″+″ (<20% = +) | ″++″ (≥20% = ++) | 
